The source of these data is US4940702A, “Cephem compounds” (Beecham Group p.l.c., priority 1985, dated 1990).

Test in all cases: Minimum Inhibitory Concentration (MIC) by serial dilution in nutrient agar
What all share (assay type): cell-based

Experiment [1] relates to P. aeruginosa NCTC 10662. The settings on record: Pseudomonas aeruginosa, NCTC10662, 10^4 colony forming units, overnight at 37° C. The method, then: (§1) Minimum Inhibitory Concentration (MIC) values of compounds of the invention against E coli DC 0, K pneumoniae T767, and P aeruginosa NCTC 10662 were determined by serial dilution in a nutrient agar (from Oxoid Ltd., Basingstoke, England). The plates were inoculated with 10^4 colony forming units and incubated overnight at 37° C. The MIC values recorded in Table 1 were the lowest concentration of antibiotic to inhibit growth. Comparative data for 7α-formamido-3-(pyridiniummethyl)-7β-(thien-2-yl-acetamido)-ceph-3-em-4-carboxylate (Compound A), disclosed in European Patent Application No. 82303821.1 (Publication Number 0 071 395), are also given.

Experiment [2] relates to K. pneumoniae T767. As to conditions: Klebsiella pneumoniae, 10^4 colony forming units, overnight at 37° C. As to the method:
as §1

The test system of experiment [3] is E. coli DC 0. As to conditions: Escherichia coli, DC0, 10^4 colony forming units, overnight at 37° C. The method, then: as §1

The structures appear in SMILES notation. Values after ≈ are worked out from the molar mass of the structure shown.

In general, MIC refers to the lowest concentration that inhibits growth of the organism. A lower MIC goes with inhibition by little substance. Turning to `O=CN[C@@]1(NC(=O)Cc2cccs2)C(=O)N2C(C(=O)[O-])=C(C[n+]3ccccc3)CS[C@@H]21` [Compound A, 7α-formamido-3-(pyridiniummethyl)-7β-(thien-2-yl-acetamido)-ceph-3-em-4-carboxylate, reference compound], the figures for the MIC in experiment [1], in experiment [2] and in experiment [3] were 50 µg/mL (≈ 109 µM), 25 µg/mL (≈ 54.5 µM) and 25 µg/mL (≈ 54.5 µM), respectively.

As to `CCN1CCN(C(=O)NC(C(=O)NC2(NC=O)C(=O)N3C(C(=O)[O-])=C(C[n+]4cccc5c4CCC5)CSC32)c2ccc(O)c(O)c2)C(=O)C1=O` [Example 3, 3-(2,3-Cyclopentenopyridinium)methyl-7β-[D-2-(3,4-dihydroxyphenyl)-2-[(4-ethyl-2,3-dioxopiperazin-1-yl)carbonylamino]acetamido]-7α-formamido-ceph-3-em-4-carboxylate], the MIC in experiment [1] amounted to 1 µg/mL (≈ 1.41 µM); in experiment [2], 0.12 µg/mL (≈ 0.17 µM); in experiment [3], 0.12 µg/mL (≈ 0.17 µM).

As for `CCN1CCN(C(=O)N[C@@H](C(=O)N[C@]2(NC=O)C(=O)N3C(C(=O)[O-])=C(C[n+]4ccc(C5CC5)cc4)CS[C@@H]32)c2ccccc2)C(=O)C1=O` [Example 29, 3-(4-Cyclopropylpyridinium)methyl-7β-[D-2-[(4-ethyl-2,3-dioxopiperazin-1-yl)carbonylamino]-2-phenylacetamido]-7α-formamido-ceph-3-em-4-carboxylate], the results for the minimal inhibitory concentration (MIC) in experiment [1], in experiment [2] and in experiment [3] were 8 µg/mL (≈ 11.8 µM), 1 µg/mL (≈ 1.48 µM) and 0.5 µg/mL (≈ 0.74 µM), respectively.
